Experimental data reported in ChEMBL document CHEMBL1145011 (J Med Chem, 2003).
Values belong to the compound of their own block, whether it stands above or below them.

Columns and labels:
in vitro = settings: human, Caco-2
in vivo [1] = settings: rat, po, 10 umol/kg
in vivo [2] = settings: rat, plasma, iv, 10 umol/kg
[3] = Tested for plasma clearance at intravenous dose of 25 umol/kg in monkey; format: ADME, organism-based
[4] = Area under curve at oral dose of 25 umol/kg in monkey; format: ADME; settings: simiiformes, in vivo
[5] = Tested for volume distribution at intravenous dose of 25 umol/kg in monkey; format: ADME, organism-based; settings: simiiformes, in vivo, read-out: Vss
[6] = Half life in monkey at intravenous dose of 25 umol/kg; format: ADME, organism-based; settings: simiiformes, in vivo
in vivo [7] = settings: rat, po, 10 uM/kg
[8] = T max value at oral dose of 25 umol/kg in monkey; format: ADME, organism-based; settings: simiiformes, in vivo
in vivo [9] = settings: rat, iv, 10 umol/kg
in vivo [10] = settings: rat, po, 10 umol/kg; remark: listed apart in the source
in vivo [11] = settings: rat
[12] = Half life in monkey at oral dose of 25 umol/kg; format: ADME, organism-based; settings: simiiformes, in vivo
[13] = Percent oral bioavailability at dose of 25 umol/kg in monkey; format: ADME, organism-based; settings: primates, in vivo
[14] = Area under curve at intravenous dose of 25 umol/kg in monkey; format: ADME; settings: simiiformes, in vivo
[15] = Cmax value at oral dose of 25 umol/kg in monkey; format: ADME, organism-based; parameters: dose 25 umol/kg, route oral; settings: simiiformes, in vivo
in vivo [16] = settings: rat, plasma, iv, 10 umol/kg; remark: listed apart in the source
in vivo [17] = settings: rat, iv, 10 umol/kg; remark: listed apart in the source

SMILES: Cc1noc(NS(=O)(=O)c2ccccc2-c2ccc(-c3ncco3)cc2COCC(C)C)c1C
- Papp (in vitro): < 3 ×10⁻⁶ cm/s

- Papp (in vitro): 8.9 ×10⁻⁶ cm/s
SMILES: Cc1noc(NS(=O)(=O)c2ccccc2-c2ccc(-c3ncco3)cc2/C=C\c2ccccc2)c1C

SMILES: Cc1noc(NS(=O)(=O)c2ccccc2-c2ccc(-c3ncco3)cc2Cc2ncco2)c1C
- Papp (in vitro): 14.8 ×10⁻⁶ cm/s

- Cmax (in vivo [1]): 28 µM
- clearance (in vivo [2]): 5.4 mL/min/kg
- clearance [3]: 2.7 mL/min/kg
- AUC [4]: 41.5 µM·h
- Vd [5]: 0.25 L/kg
- half-life [6]: 14 h
- bioavailability (in vivo [7]): 100%
- Tmax [8]: 1.2 h
- Vd (in vivo [9]): 1.1 L/kg
- Tmax (in vivo [10]): 0.4 h
- half-life (in vivo [11]): 3.4 h
- half-life [12]: 17 h
- bioavailability [13]: 26%
- AUC [14]: 161 µM·h
- Cmax [15]: 16.1 µM
SMILES: Cc1onc(NS(=O)(=O)c2ccccc2-c2ccc(-c3ncco3)cc2N(C)C(=O)CC(C)(C)C)c1C

SMILES: Cc1onc(NS(=O)(=O)c2ccccc2-c2ccc(-c3ncco3)cc2CN2CCC(C)(C)C2=O)c1C
- Cmax (in vivo [1]): 7.7 µM
- bioavailability (in vivo [7]): 78%
- clearance (in vivo [16]): 9.3 mL/min/kg
- Tmax (in vivo [10]): 0.6 h
- Vd (in vivo [17]): 2.3 L/kg
- half-life (in vivo [11]): 4.7 h
